Where two headings read alike, the source gives them in different places.
Key:
vitamin D-deficient rats [1] = assay: Intestinal calcium transport (everted gut sac method); format: in vivo, rat; conditions: FIG. 5; for intestinal calcium transport: everted gut sac
Description: (§1) Male, weanling Sprague-Dawley rats were placed on Diet 11 (0.47% Ca) diet+AEK for one week followed by Diet 11 (0.02% Ca)+AEK for 3 weeks. The rats were then switched to a diet containing 0.47% Ca for one week followed by two weeks on a diet containing 0.02% Ca. Dose administration began during the last week on 0.02% calcium diet. Four consecutive ip doses were given approximately 24 hours apart. Twenty-four hours after the last dose, blood was collected from the severed neck and the concentration of serum calcium determined as a measure of bone calcium mobilization. The first 10 cm of the intestine was also collected for intestinal calcium transport analysis using the everted gut sac method.

[2] = test system: Human promyelocytic leukemia (HL60) cells; assay: HL-60 differentiation (nitro blue tetrazolium reduction); format: cell-based; conditions: FIG. 2; for EC50: HL-60 cells, four days after treatment, read-out: EC50, HL-60 cell differentiation
Description: The study drugs were dissolved in ethanol and the concentrations determined using UV spectrophotometry. Serial dilutions were prepared so that a range of drug concentrations could be tested without changing the final concentration of ethanol (≦0.2%) present in the cell cultures.
Human promyelocytic leukemia (HL60) cells were grown in RPMI-1640 medium containing 10% fetal bovine serum. The cells were incubated at 37° C. in the presence of 5% CO2.
HL60 cells were plated at 1.2×10^5 cells/ml. Eighteen hours after plating, cells in duplicate were treated with drug. Four days later, the cells were harvested and a nitro blue tetrazolium reduction assay was performed (Collins et al., 1979; J. Exp. Med. 149:969-974). The percentage of differentiated cells was determined by counting a total of 200 cells and recording the number that contained intracellular black-blue formazan deposits. Verification of differentiation to monocytic cells was determined by measuring phagocytic activity (data not shown).

vitamin D-deficient rats [3] = assay: Bone calcium mobilization (serum calcium); format: in vivo, rat; conditions: FIG. 4
Description: as §1

[4] = test system: 24-hydroxylase (24Ohase) gene promoter in ROS 17/2.8 (bone) cells; assay: In vitro transcription assay (luciferase reporter); format: cell-based; conditions: FIG. 3; for EC50: ROS 17/2.8 cells, 24Ohase promoter-luciferase, 16 h, read-out: EC50, transcriptional activity in bone cells
Description: Transcription activity was measured in ROS 17/2.8 (bone) cells that were stably transfected with a 24-hydroxylase (24Ohase) gene promoter upstream of a luciferase reporter gene (Arbour et al., 1998). Cells were given a range of doses. Sixteen hours after dosing the cells were harvested and luciferase activities were measured using a luminometer.
RLU=relative luciferase units.

[5] = target: T1, full-length recombinant rat vitamin D receptor (Rattus norvegicus, UniProt P13053); assay: Vitamin D receptor binding, competition with [3H]-1,25(OH)2D3; conditions: FIG. 1
T1 construct: Full-length recombinant rat receptor was expressed in E. coli; histidine tag (C); made in house; host or cells: E. coli BL21 (DE3) Codon Plus RIL
T1 sequence (P13053 1-423): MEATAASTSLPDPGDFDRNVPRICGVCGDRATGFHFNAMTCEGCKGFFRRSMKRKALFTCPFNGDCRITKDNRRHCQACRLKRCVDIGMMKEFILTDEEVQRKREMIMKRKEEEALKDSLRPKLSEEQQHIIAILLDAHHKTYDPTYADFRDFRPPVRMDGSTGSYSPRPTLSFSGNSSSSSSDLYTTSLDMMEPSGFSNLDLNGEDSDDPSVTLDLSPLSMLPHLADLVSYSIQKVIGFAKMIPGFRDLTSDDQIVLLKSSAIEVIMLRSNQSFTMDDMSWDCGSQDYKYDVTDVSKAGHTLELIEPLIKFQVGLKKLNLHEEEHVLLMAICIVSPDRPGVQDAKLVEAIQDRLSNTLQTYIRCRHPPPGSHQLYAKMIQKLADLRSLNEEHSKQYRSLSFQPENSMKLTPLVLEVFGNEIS
Description: Full-length recombinant rat receptor was expressed in E. coli BL21 (DE3) Codon Plus RIL cells and purified to homogeneity using two different column chromatography systems. The first system was a nickel affinity resin that utilizes the C-terminal histidine tag on this protein. The protein that was eluted from this resin was further purified using ion exchange chromatography (S-Sepharose Fast Flow). Aliquots of the purified protein were quick frozen in liquid nitrogen and stored at −80° C. until use. For use in binding assays, the protein was diluted in TEDK50 (50 mM Tris, 1.5 mM EDTA, pH7.4, 5 mM DTT, 150 mM KCl) with 0.1% Chaps detergent. The receptor protein and ligand concentration were optimized such that no more than 20% of the added radiolabeled ligand was bound to the receptor.
Radiolabeled and unlabeled ligands were added to 100 mcl of the diluted protein at a final ethanol concentration of ≦10%, mixed and incubated overnight on ice to reach binding equilibrium. The following day, 100 mcl of hydroxylapatite slurry (50%) was added to each tube and mixed at 10-minute intervals for 30 minutes. The hydroxylapaptite was collected by centrifugation and then washed three times with Tris-EDTA buffer (50 mM Tris, 1.5 mM EDTA, pH 7.4) containing 0.5% Titron X-100. […] Total binding was determined from the tubes containing only radiolabeled ligand.

EC50 ([2]; Homo sapiens, 96 h) [nM]	Ki ([5]; full-length recombinant rat VDR) [nM]	binding to the receptor compared to 1,25-(OH)2D3 ([5]; in words)	Compound	intestinal calcium transport (vitamin D-deficient rats [1]; 260 pmol/day)	EC50 [2] [nM]	serum calcium levels (vitamin D-deficient rats [3]; all dosages, rats on low calcium diet (0.02%))	EC50 [4] [nM]	intestinal calcium transport (vitamin D-deficient rats [1]; 7020 pmol/day)	intestinal calcium transport activity compared to 1,25(OH)2D3 (vitamin D-deficient rats [1]; in words)	potency on HL-60 cell differentiation compared to 1,25(OH)2D3 ([2]; in words)	bone calcium mobilization (serum calcium) (vitamin D-deficient rats [3]; 260 pmol/day ip for 4 consecutive days, rats on low calcium diet (0.02%))	bone calcium mobilization (serum calcium) (vitamin D-deficient rats [3]; 7020 pmol/day, rats on low calcium diet (0.02%))	bone calcium mobilization activity compared to 1,25(OH)2D3 (vitamin D-deficient rats [3]; in words)	transcriptional activity in bone cells compared to 1α,25-dihydroxyvitamin D3 ([4]; in words)
			C=C1/C(=C\C=C2/CCC[C@]3(C)[C@@H]([C@H](C)CCCC(C)(C)O)CC[C@@H]23)C[C@@H](O)C[C@@H]1O [1,25(OH)2D3, 1α,25-dihydroxyvitamin D3, reference compound]	promotes a significant increase	2	increased serum calcium levels at all dosages	0.2							
1	0.4	bound equally to the receptor	C=C1[C@H](O)CC(=C/C=C2\CCC[C@]3(C)[C@@H]([C@H](C)/C=C/C[C@H](C)O)CC[C@@H]23)C[C@H]1O [REN, 2-methylene-(20R,25S)-19,27-dinor-(22E)-1α,25-dihydroxyvitamin D3]	promotes intestinal calcium transport only slightly			0.1	significant intestinal calcium transport activity	very little activity	as potent as 1,25(OH)2D3	did not result in mobilization of bone calcium	without any substantial effect	very little bone calcium mobilization activity	about the same transcriptional activity

From US7741314B2, “2-Methylene-(20R,25S)-19,27-Dinor-(22E)-Vitamin D Analogs” (Wisconsin Alumni Research Foundation, priority 2006, dated 2010)
